Laboratory results from US20100016221A1, “METHOD OF DEGRADING PROTEIN BY CHAPERONE-MEDIATED AUTOPHAGY” (RIKEN, priority 2008, published 2010).

Columns and labels:
[1] = test system: polyQ inclusions in 150Q Neuro2a cells (tNhtt-EGFP-150Q); assay: ArrayScan quantification of polyQ inclusion formation in inducible 150Q Neuro2a cells; type: cell-based, mouse; conditions: constructs without mRFP, induced and differentiated for 24 hours
Procedure: (§1) Mouse neuroblastoma (Neuro2a) cells were maintained in Dulbecco's modified Eagle's medium (Sigma) supplemented with 10% heat-inactivated fetal bovine serum (Sigma), 100 U/ml penicillin and 100 μg/ml streptomycin (Invitrogen) at 37° C. in an atmosphere containing 5% CO2 and 95% air. Establishment of stable Neuro2a cell lines with the ecdysone-inducible mammalian expression system (Invitrogen), that express tNhtt-EGFP-16Q (16Q Neuro2a cells), tNhtt-EGFP-150Q (150Q Neuro2a cells) and tNhtt-EGFP-150Q-nls (150Q-nls Neuro2a cells) has been described earlier (T. Nagai et al., supra, H. Doi et al., supra, E. A. Zemskov et al., J Neurochem. 87, 2 (2003)). Neuro2a cells were differentiated with 5mM dbcAMP (N^6, 2′-O-dibutyryladenosine-3′,5′-cyclic monophosphate sodium salt) (Nacalai Tesque) and induced to express tNhtt-polyQ with 2 μM ponasterone A (ponA; Invitrogen) for indicated times. Neuro2a/FRT/TR cell line was generated as described in the protocol for Flp-in/T-Rex system (Invitrogen). Neuro2a tNhtt-62Q-kikGR cell line was generated by transfecting Neuro2a/FRT/TR cells with the pFRT-HD62-KikGR and pOG44 (Invitrogen) constructs using Lipofectamine 2000 reagent and selected with 200 μg/ml hygromycin. The expression of the pFRT-tNhtt-62Q-KikGR was induced by 18 doxycycline treatment of the cells. For the photo-induced kikGR cleavage, cells were exposed to ˜400 nm wavelength for 5 minutes. Rat pheochromocytoma (PC12) cells were grown in the same conditions as Neuro2a cells, except for the serum composition of 5% of fetal bovine and 10% of horse serum (Sigma). All transient transfections were performed with Lipofectamine 2000 (Invitrogen) according to the manufacturer's instruction.
(§2) For the quantification of the inclusions, cells were grown in 24-well plates for indicated periods, fixed in 4% paraformaldehyde, washed and incubated with Hoechst 33258 at 1/1000 dilution in PBS. Cells were analyzed by ArrayScan® V^TI High Content Screening (HSC) Reader (Cellomics) using Target Activation BioApplication (TABA). TABA analyzes images acquired by a HSC Reader and provides measurements of the intracellular fluorescence intensity and localization on a cell-by-cell basis.
(§3) In each well, at least 10000 cells were counted and quantified for the presence of the inclusions. Nuclei stained with Hoechst 33285 provided the autofocus target and their count gave the exact number of the quantified cells. The screening itself consisted of two scans using Hoechst, FITC (for GFP) and TRITC (for RFP) fluorescence. Firstly, number of inclusions in transfected cells was calculated when fluorescent spots at size of at least 5 pixels (magnification 20× for cytoplasmic and 40× for nuclear aggregates) with average GFP intensity more than 1500 in the RFP background were counted. Secondly, nuclei were defined as the objects of interest and the cells with average intensity more than 50 within 3 pixels from the nucleus were selected for the analysis. The percentage of the cells with aggregates was then calculated. When the constructs without mRFP were used for transfection, the procedure was same, except the RFP intensity was not measured. Scanning was performed with triplicate or quadruplicate in each experimental condition. Data was generated from the quantification of more than 250,000 cells in each experimental set-up.

[2] = test system: polyQ inclusions in 150Q-nls Neuro2a cells (tNhtt-EGFP-150Q-nls); assay: ArrayScan quantification of polyQ inclusion formation in inducible 150Q-nls Neuro2a cells; type: cell-based, mouse; conditions: 150Q-nls Neuro2a cells, constructs without mRFP, 48 hours after induction
Procedure: as §1, with “Rat pheochromocytoma (PC12) cells were grown in the same conditions as Neuro2a cells, except for the serum composition of 5% of fetal bovine and 10% of horse serum (Sigma). All transient transfections were performed with Lipofectamine 2000 (Invitrogen) according to the manufacturer's instruction.” left out
as §2
as §3, with “Secondly, nuclei were defined as the objects of interest and the cells with average intensity more than 50 within 3 pixels from the nucleus were selected for the analysis.” left out, “Scanning was performed with triplicate or quadruplicate in each experimental condition.” left out

150Q Neuro2a cells = assay: Cell death assay (propidium iodide uptake) in 150Q Neuro2a cells; type: cell-based, mouse; conditions: after 60 hours of induction
Procedure: (§4) Mouse neuroblastoma (Neuro2a) cells were maintained in Dulbecco's modified Eagle's medium (Sigma) supplemented with 10% heat-inactivated fetal bovine serum (Sigma), 100 U/ml penicillin and 100 μg/ml streptomycin (Invitrogen) at 37° C. in an atmosphere containing 5% CO2 and 95% air. Establishment of stable Neuro2a cell lines with the ecdysone-inducible mammalian expression system (Invitrogen), that express tNhtt-EGFP-16Q (16Q Neuro2a cells), tNhtt-EGFP-150Q (150Q Neuro2a cells) and tNhtt-EGFP-150Q-nls (150Q-nls Neuro2a cells) has been described earlier (T. Nagai et al., supra, H. Doi et al., supra, E. A. Zemskov et al., J Neurochem. 87, 2 (2003)). Neuro2a cells were differentiated with 5mM dbcAMP (N^6, 2′-O-dibutyryladenosine-3′,5′-cyclic monophosphate sodium salt) (Nacalai Tesque) and induced to express tNhtt-polyQ with 2 μM ponasterone A (ponA; Invitrogen) for indicated times. Neuro2a/FRT/TR cell line was generated as described in the protocol for Flp-in/T-Rex system (Invitrogen). […]
(§5) For quantification of cell death, 5 μg/ml each of Hoechst 33342 and propidium iodide (PI) were added to differentiated and induced Neuro2a cells transiently transfected with either of the tested constructs (FIG. 6A). After 10 minutes at 37° C., the number of cells with PI uptake over the total number of cells was calculated by ArrayScan.

150Q-nls Neuro2a cells = assay: Cell death assay (propidium iodide uptake) in 150Q-nls Neuro2a cells; type: cell-based, mouse; conditions: after 48 hours of induction
Procedure: as §4, §5

tNhtt-60Q = target: T1, tNhtt-60Q (Homo sapiens, UniProt P42858, INS38QQQQQQQQQQQQQQQQQQQQQQQQQQQQQQQQQQQQQQQ); assay: Dot blot of purified intact lysosomes from Neuro2a cells co-transfected with tNhtt-60Q; type: cell-based; conditions: 16 hours
T1 construct: N-terminal fragment of human huntington exon 1 (tNhtt) encoding 60 CAG repeats; expressed in transfected cells; host or cells: Neuro2a cells, transient co-transfection
T1 sequence (P42858 with tags, fused parts or gaps with the stated changes): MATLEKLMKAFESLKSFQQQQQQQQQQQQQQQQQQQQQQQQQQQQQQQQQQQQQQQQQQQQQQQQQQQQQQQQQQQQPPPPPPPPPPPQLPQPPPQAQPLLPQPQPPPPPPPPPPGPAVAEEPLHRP
Procedure: We used a modification of the previously described method for the purification of lysosomes from CHO cells (E. A. Madden, B. Storrie, Anal. Biochem. 163, 2 (1987), E. A. Madden, J. B. Wirt, B. Storrie, Arch. Biochem. Biophys. 257, 1 (1987)). Neuro2a cells grown in 10 cm dishes were co-transfected with tNhtt-60Q and tested constructs, and after 16 hrs of incubation, cells were washed with ice cold PBS and homogenized by ten strokes. The homogenate was centrifuged at 1300 g for 5 min. The supernatant was decanted and placed on ice. The nuclear fraction was resuspended in 0.25 M sucrose and centrifuged at 1300 g for 5 min. This step was repeated 3 times and the supernatants from each wash were pooled to give a total post-nuclear supernatant (PNS). All the solutions used for the preparation of the discontinuous gradient were in 0.25 M sucrose. Gradients were prepared in cellulose nitrate tubes for Beckman SW40 rotor. Two ml of 35% Histodenz (Sigma) was overlaid with 2 ml of 17% Histodenz followed by 5 ml of 6% Percoll (Sigma). The tubes were then filled with 4.8 ml of PNS. […]
Cells were washed twice with ice-cold PBS, scraped, and resuspended in lysis buffer (0.5% Triton X-100 in PBS, 0.5 mM phenylmethylsulfonyl fluoride, Complete protease inhibitor mixture (Roche Applied Sciences)). […] Immunoreactive proteins were detected with enhanced chemiluminescence reagents (Amersham Biosciences). […]

translocation of expanded polyQ toward the lysosomes (tNhtt-60Q): efficient translocation
Substance: HSC70bm-(QBP1)2 (MARVKKDQAEPLHRKFERQPPGSNWKWWPGIFDSNWKWWPGIFD) [HQ]
decrease of aggregation compared to control counterparts (S and HS) [1]: 58.5%
reduction of aggregation compared to control counterparts (S and HS) [2]: 45.2%
decrease of the percentage of PI-positive cells (150Q Neuro2a cells): 37.4%
decrease of the percentage of PI-positive cells (150Q-nls Neuro2a cells): 47.2%
